Measured values published in paper PMC10840383, “Clinical features, functional consequences, and rescue pharmacology of missense GRID1 and GRID2 human variants” (Human Molecular Genetics, 2023).

Columns and labels:
GluD2-D535E = target: T1, GluD2-D535E (Rattus norvegicus, UniProt Q63226, D535E); test: TEVC of constitutive current, Xenopus oocytes expressing GluD2-D535E; assay type: cell-based; settings: positive = increase, negative = decrease of activity
T1 construct: expressed in transfected cells; host or cells: Xenopus laevis oocytes injected with cRNA
T1 sequence (Q63226 24-1007 D535E): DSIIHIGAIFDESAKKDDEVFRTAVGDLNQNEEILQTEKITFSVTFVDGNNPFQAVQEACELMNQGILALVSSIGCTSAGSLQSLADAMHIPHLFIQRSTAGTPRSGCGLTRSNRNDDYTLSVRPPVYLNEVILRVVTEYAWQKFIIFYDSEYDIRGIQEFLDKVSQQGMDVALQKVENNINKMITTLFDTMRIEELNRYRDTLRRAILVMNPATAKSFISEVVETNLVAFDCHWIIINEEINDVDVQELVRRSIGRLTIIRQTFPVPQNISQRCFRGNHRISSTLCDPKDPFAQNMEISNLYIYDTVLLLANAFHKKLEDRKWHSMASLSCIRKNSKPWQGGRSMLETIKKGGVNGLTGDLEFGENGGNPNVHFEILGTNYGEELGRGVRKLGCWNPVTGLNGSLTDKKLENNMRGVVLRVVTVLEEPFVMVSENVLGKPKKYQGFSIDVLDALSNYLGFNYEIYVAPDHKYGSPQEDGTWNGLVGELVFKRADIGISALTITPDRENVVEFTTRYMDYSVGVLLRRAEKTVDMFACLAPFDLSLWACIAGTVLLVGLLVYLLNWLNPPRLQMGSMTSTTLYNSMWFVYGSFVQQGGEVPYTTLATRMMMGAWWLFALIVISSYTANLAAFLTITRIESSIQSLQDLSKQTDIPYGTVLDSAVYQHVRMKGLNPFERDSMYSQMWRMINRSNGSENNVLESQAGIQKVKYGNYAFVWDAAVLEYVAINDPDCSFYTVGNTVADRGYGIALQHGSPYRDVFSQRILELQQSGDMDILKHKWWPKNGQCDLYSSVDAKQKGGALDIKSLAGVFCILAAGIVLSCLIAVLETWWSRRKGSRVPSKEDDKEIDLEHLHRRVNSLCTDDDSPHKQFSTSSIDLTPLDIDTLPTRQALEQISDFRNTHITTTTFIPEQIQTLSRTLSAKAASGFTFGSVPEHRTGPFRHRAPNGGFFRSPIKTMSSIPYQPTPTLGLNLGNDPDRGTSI

GluD1-N651S = target: T2, GluD1-N651S (Homo sapiens, UniProt Q9ULK0, N651S); test: TEVC of constitutive current, Xenopus oocytes expressing GluD1-N651S; assay type: cell-based; settings: positive = increase, negative = decrease of activity
T2 construct: expressed in transfected cells; host or cells: Xenopus laevis oocytes injected with cRNA
T2 sequence (Q9ULK0 21-1009 N651S): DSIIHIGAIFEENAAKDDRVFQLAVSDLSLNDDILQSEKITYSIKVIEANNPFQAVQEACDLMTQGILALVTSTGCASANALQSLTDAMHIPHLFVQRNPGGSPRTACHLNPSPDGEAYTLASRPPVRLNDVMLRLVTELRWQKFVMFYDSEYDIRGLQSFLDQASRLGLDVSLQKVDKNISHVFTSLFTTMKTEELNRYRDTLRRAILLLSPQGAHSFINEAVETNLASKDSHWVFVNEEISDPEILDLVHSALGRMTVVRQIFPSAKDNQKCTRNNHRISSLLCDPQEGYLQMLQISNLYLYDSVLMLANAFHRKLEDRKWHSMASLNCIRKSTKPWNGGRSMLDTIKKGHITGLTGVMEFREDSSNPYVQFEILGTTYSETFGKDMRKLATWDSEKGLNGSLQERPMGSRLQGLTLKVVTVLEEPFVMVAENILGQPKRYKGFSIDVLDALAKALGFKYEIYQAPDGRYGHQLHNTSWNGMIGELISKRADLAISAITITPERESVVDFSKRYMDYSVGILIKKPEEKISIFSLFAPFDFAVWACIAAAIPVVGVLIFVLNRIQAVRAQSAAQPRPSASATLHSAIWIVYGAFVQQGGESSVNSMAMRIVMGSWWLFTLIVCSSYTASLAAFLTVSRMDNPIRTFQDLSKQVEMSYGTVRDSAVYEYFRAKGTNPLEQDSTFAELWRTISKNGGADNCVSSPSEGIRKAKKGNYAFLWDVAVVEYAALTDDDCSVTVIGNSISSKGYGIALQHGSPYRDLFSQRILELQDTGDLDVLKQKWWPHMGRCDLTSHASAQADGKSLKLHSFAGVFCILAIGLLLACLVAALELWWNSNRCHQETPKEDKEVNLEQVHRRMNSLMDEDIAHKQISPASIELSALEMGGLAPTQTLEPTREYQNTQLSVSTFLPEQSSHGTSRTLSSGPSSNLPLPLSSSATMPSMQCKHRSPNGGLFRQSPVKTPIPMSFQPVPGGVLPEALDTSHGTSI

[1] = tested on: constitutively active GluD1 and GluD2 receptor variants; test: Inhibition of constitutive currents of GluD variants by channel blockers, Xenopus oocytes; assay type: cell-based
Description: Xenopus laevis oocytes were prepared from ovaries purchased from Xenopus 1 (Dexter, MI) as previously described, [68] and incubated at 16°C in culture Barth’s solution (in mM) 88 NaCl, 2.4 NaHCO3, 1 KCl, 0.33 Ca(NO3)2, 0.41 CaCl2, 0.82 MgSO4, 10 HEPES, pH 7.4 with NaOH, supplemented with 1 U/ml penicillin and 1 μg/ml streptomycin. Oocytes were injected with approximately 5–40 ng RNA per oocyte and then incubated at 16–19°C for 1–3 days in culture Barth’s solution. The levels of GluD2-A654D and GluD2-A654T cRNA were reduced to 1.5 ng and 2.5 ng, respectively, due to oocyte toxicity. Two-electrode voltage clamp (TEVC) recordings were performed as previously described. Unless otherwise specified, extracellular solution contained (in mM) 90 NaCl, 3 KCl, 0.5 BaCl2, 0.01 EDTA, 10 HEPES, and was brought to pH 7.4 with NaOH. The oocytes were placed in a dual track recording chamber and gravity perfused with solution exchange controlled via a computer-driven 8-valve positioner (Digital MVP Valve). […] Recording electrodes were filled with 0.3 M KCl, and currents were recorded with membrane voltage held at −40 mV. To establish constitutive activity of recombinant receptors when compared to wild type receptors, we used the oocyte recording solution described above, but with 90 mM N-methyl-D-glucamine (NMDG) chloride replacing 90 mM NaCl. […] In addition to establishing constitutive activity, 90 mM NMDG was used in recording protocols with drug treatment to obtain the percent maximum theoretical inhibition of a compound, or to determine the relative degree of drug potentiation. For Ca^2+ concentration-response curves, choline chloride was used to maintain equimolar concentrations of Cl^− ions in the extracellular solution across the changing concentrations of calcium chloride. All compounds used in this study for concentration-response oocyte recordings were dissolved in deionized water as 50–100 mM stock solutions. In some rescue pharmacology experiments, we substituted 1 mM CaCl2 for 0.5 mM BaCl2 to evaluate Ca^2+-dependent control of receptor responses.

GluD2-A654T receptor = target: GluD2-A654T receptor; parameters: method as in PMID 12606689; settings: read-out: Pentamidine IC50; cited from earlier work

Row | Structure (SMILES) | D-Serine effect (Baseline −10 mM D-Serine) (GluD2-D535E; 10 mM D-serine) | D-Serine effect (Baseline −10 mM D-Serine) (GluD1-N651S; 10 mM D-serine) | Inhibition of constitutive currents, in words [1] | IC50 (GluD2-A654T receptor) [µM] | Pentamidine effect (Baseline −100 μM Pentamidine) (GluD2-D535E; 100 μM pentamidine) | Pentamidine effect (Baseline −100 μM Pentamidine) (GluD1-N651S; 100 μM pentamidine)
1 | N[C@H](CO)C(=O)O [D-serine] | −5.8 ± 2.4 (12) nA | 7.6 ± 1.6 (10) nA |  |  |  | 
2 | CC12CC3CC(C)(C1)CC(N)(C3)C2 [Memantine, memantine] |  |  | more effectively than ketamine |  |  | 
3 | N=C(N)c1ccc(OCCCCCOc2ccc(C(=N)N)cc2)cc1 [Pentamidine, pentamidine] |  |  | inhibits | 11 | −0.67 ± 1.1 (12) nA | 38 ± 8.3 (10) nA
